According to PubChem BioAssay AID248 (DTP/NCI, 2004):
Several values for one entry are separate records, joined by “and”; a condition that tells them apart may be missing. Equal values may be shown once. Toxic doses and inconclusive results are not listed. Cut-off read from the data, not from the text of the source: active = T/C of 150% or more; inactive = T/C below 125%.

Tested on: L1210 leukemia ip in BDF1 mice, survival T/C
Test: NCI In Vivo Anticancer Drug Screen. Data for tumor model L1210 Leukemia (intraperitoneal) in B6D2F1 (BDF1) mice
Details: endpoint: mean survival time, higher = longer survival
How it was run: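 Survival endpoint. Drug-treated group vs vehicle group, expressed as T divided by C. Tumor passaged by transplantation.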

[1] = dose: 50.0 mg/kg/injection, schedule: Q01DX001 (ip), vehicle: saline
[2] = dose: 100.0 mg/kg/injection, schedule: Q01DX001 (ip), vehicle: saline
[3] = dose: 200.0 mg/kg/injection, schedule: Q01DX001 (ip), vehicle: saline
[4] = dose: 400.0 mg/kg/injection, schedule: Q01DX001 (ip), vehicle: saline
[5] = dose: 100.0 mg/kg/injection, schedule: Q04DX002 (ip), vehicle: Klucel (hydroxypropylcellulose) (HPC)
[6] = dose: 200.0 mg/kg/injection, schedule: Q04DX002 (ip), vehicle: Klucel (hydroxypropylcellulose) (HPC)
[7] = dose: 400.0 mg/kg/injection, schedule: Q04DX002 (ip), vehicle: Klucel (hydroxypropylcellulose) (HPC)
[8] = dose: 100.0 mg/kg/injection, schedule: Q04DX003 (ip), vehicle: saline
[9] = dose: 200.0 mg/kg/injection, schedule: Q04DX003 (ip), vehicle: saline
[10] = dose: 400.0 mg/kg/injection, schedule: Q04DX003 (ip), vehicle: saline
[11] = dose: 100.0 mg/kg/injection, schedule: Q04DX003 (ip), vehicle: Klucel (hydroxypropylcellulose) (HPC)
[12] = dose: 200.0 mg/kg/injection, schedule: Q04DX003 (ip), vehicle: Klucel (hydroxypropylcellulose) (HPC)
[13] = dose: 400.0 mg/kg/injection, schedule: Q04DX003 (ip), vehicle: Klucel (hydroxypropylcellulose) (HPC)
[14] = dose: 100.0 mg/kg/injection, schedule: Q01DX009 (ip), vehicle: Klucel (hydroxypropylcellulose) (HPC)
[15] = dose: 200.0 mg/kg/injection, schedule: Q01DX009 (ip), vehicle: Klucel (hydroxypropylcellulose) (HPC)
[16] = dose: 400.0 mg/kg/injection, schedule: Q01DX009 (ip), vehicle: Klucel (hydroxypropylcellulose) (HPC)
[17] = dose: 50.0 mg/kg/injection, schedule: Q01DX009 (ip), vehicle: saline
[18] = dose: 100.0 mg/kg/injection, schedule: Q01DX009 (ip), vehicle: saline
[19] = dose: 200.0 mg/kg/injection, schedule: Q01DX009 (ip), vehicle: saline
[20] = dose: 100.0 mg/kg/injection, schedule: Q04DX003 (ip), vehicle: saline with Tween-80
[21] = dose: 200.0 mg/kg/injection, schedule: Q04DX003 (ip), vehicle: saline with Tween-80
[22] = dose: 400.0 mg/kg/injection, schedule: Q04DX003 (ip), vehicle: saline with Tween-80
[23] = dose: 75.0 mg/kg/injection, schedule: Q01DX001 (ip), vehicle: saline
[24] = dose: 75.0 mg/kg/injection, schedule: Q01DX009 (ip), vehicle: saline
[25] = dose: 150.0 mg/kg/injection, schedule: Q01DX009 (ip), vehicle: saline

Measured: T/C

O=C(Nc1ccc2c3c(ccc(NC(=O)c4ccccc4)c13)C=C2)c1ccccc1
inactive: [1] 102 % of control | [2] 100 % of control | [3] 100 % of control | [4] 100 % of control

NNc1cc(Cl)ccc1Cl
inactive: [5] 96 % of control | [6] 96 % of control | [7] 100 % of control

NC(=S)Nc1cccc(O)c1
inactive: dose: 100.0 mg/kg/injection, schedule: Q01DX009 (ip), vehicle: gum acacia 96 % of control | dose: 100.0 mg/kg/injection, schedule: Q04DX003 (ip), vehicle: gum acacia 92 % of control | dose: 200.0 mg/kg/injection, schedule: Q01DX009 (ip), vehicle: gum acacia 87 % of control | dose: 200.0 mg/kg/injection, schedule: Q04DX003 (ip), vehicle: gum acacia 92 % of control | dose: 400.0 mg/kg/injection, schedule: Q01DX009 (ip), vehicle: gum acacia 87 % of control | dose: 400.0 mg/kg/injection, schedule: Q04DX003 (ip), vehicle: gum acacia 92 % of control

CC(=N)N
inactive: [8] 114 % of control | [9] 90 % of control | [10] 111 % of control

Oc1ccc2ccccc2c1C=Nc1ccc(Br)cc1
inactive: [11] 91 % of control | [12] 90 % of control | [13] 91 % of control

CCOC(=O)/C(C#N)=C/NN
inactive: dose: 6.25 mg/kg/injection, schedule: Q04DX003 (ip), vehicle: saline 100 % of control | dose: 12.5 mg/kg/injection, schedule: Q04DX003 (ip), vehicle: saline 96 % of control | dose: 25.0 mg/kg/injection, schedule: Q04DX003 (ip), vehicle: saline 96 % of control

O=C(Nc1cccc(C(F)(F)F)c1)Nc1nccs1
inactive: [14] 100 % of control | [5] 94 % of control | [15] 115 % of control | [6] 108 % of control | [16] 92 % of control | [7] 89 % of control

CCOC(=O)c1c(OC)cc2n(c1=O)Cc1cc3ccccc3nc1-2
inactive: dose: 150.0 mg/kg/injection, schedule: Q01DX009 (ip), vehicle: saline with Tween-80 86 % of control | dose: 225.0 mg/kg/injection, schedule: Q01DX009 (ip), vehicle: saline with Tween-80 89 % of control | dose: 335.0 mg/kg/injection, schedule: Q01DX009 (ip), vehicle: saline with Tween-80 89 % of control

O=C1c2cccc3cccc(c23)C(=O)N1c1ncn[nH]1
inactive: [1] 94 % of control | [2] 107 % of control | [4] 102 % of control

NC(=O)CCP(=O)(CCC(N)=O)CCC(N)=O
inactive: [17] 94 % of control | dose: 50.0 mg/kg/injection, schedule: Q04DX003 (ip), vehicle: saline 101 % of control | [18] 94 % of control | [8] 103 % of control | [19] 90 % of control | [9] 95 % of control | [10] 98 % of control

Cc1cc(/C=N/NC(=O)CCCC(=O)N/N=C/c2cc(C)n(-c3ccccc3)c2C)c(C)n1-c1ccccc1
inactive: [1] 98 % of control | [2] 93 % of control | [3] 95 % of control | [4] 89 % of control

N#CC1(C#N)C2C=CC(C2)C1(C#N)C#N
inactive: dose: 6.25 mg/kg/injection, schedule: Q01DX009 (ip), vehicle: saline with Tween-80 97 % of control | dose: 12.5 mg/kg/injection, schedule: Q01DX009 (ip), vehicle: saline with Tween-80 97 % of control

CN(C)N=Nc1ccccc1C#N
inactive: dose: 50.0 mg/kg/injection, schedule: Q01DX009 (ip), vehicle: Klucel (hydroxypropylcellulose) (HPC) 103 % of control | [14] 108 % of control | [11] 112 % of control | [15] 113 % of control | [12] 113 % of control | [16] 105 % of control and 120 % of control | [13] 107 % of control

OCC1=CCN(CCc2c[nH]c3ccccc23)CC1
inactive: [20] 95 % of control | [21] 88 % of control | [22] 94 % of control

O=C(O)COc1ccc(C2CCc3ccccc32)cc1 (stereo unspecified)
inactive: dose: 75.0 mg/kg/injection, schedule: Q01DX001 (ip), vehicle: Klucel (hydroxypropylcellulose) (HPC) 104 % of control | dose: 150.0 mg/kg/injection, schedule: Q01DX001 (ip), vehicle: Klucel (hydroxypropylcellulose) (HPC) 101 % of control | dose: 300.0 mg/kg/injection, schedule: Q01DX001 (ip), vehicle: Klucel (hydroxypropylcellulose) (HPC) 101 % of control

CCN=C1C=C/C(=C(/c2ccc(NCC)c(C)c2)c2cc(O)c(S(=O)(=O)O)cc2S(=O)(=O)O)C=C1C
inactive: [17] 97 % of control | [18] 97 % of control | [19] 104 % of control

CCCc1nc2ccccc2c(=O)n1/N=C/c1ccccc1O
inactive: [14] 97 % of control | [15] 102 % of control | [16] 103 % of control

c1ccc(CCN2CCC(CCc3c[nH]c4ccccc34)CC2)cc1
inactive: [1] 96 % of control | [2] 117 % of control

C=CCOC(=O)CCCCC(=O)OCC=C
inactive: dose: 100.0 mg/kg/injection, schedule: Q01DX009 (ip), vehicle: saline with Tween-80 94 % of control

O=C(O)C1C(c2ccccc2)=C(c2ccccc2)C(c2ccccc2)=C(c2ccccc2)C1C(=O)O (stereo unspecified)
inactive: dose: 50.0 mg/kg/injection, schedule: Q01DX001 (ip), vehicle: carboxymethylcellulose (CMC) 89 % of control | dose: 100.0 mg/kg/injection, schedule: Q01DX001 (ip), vehicle: carboxymethylcellulose (CMC) 92 % of control

CSC(c1ccccc1)=[N+]1CCOCC1
inactive: dose: 50.0 mg/kg/injection, schedule: Q01DX009 (ip), vehicle: saline sonified 100 % of control | dose: 100.0 mg/kg/injection, schedule: Q01DX009 (ip), vehicle: saline sonified 94 % of control | [11] 102 % of control | dose: 200.0 mg/kg/injection, schedule: Q01DX009 (ip), vehicle: saline sonified 100 % of control | [12] 98 % of control

Cc1ccc2c(c1)=N/C(=N\c1nc(O)c(O)[nH]1)N=2
inactive: [20] 97 % of control | [21] 108 % of control | [22] 103 % of control

CCCCCCCCCCSCCSCCSCCCCCCCCCC
inactive: [11] 94 % of control

C/C(=N/NC(=O)CC#N)c1ccccc1
inactive: dose: 100.0 mg/kg/injection, schedule: Q04DX002 (ip), vehicle: saline with Tween-80 101 % of control | dose: 200.0 mg/kg/injection, schedule: Q04DX002 (ip), vehicle: saline with Tween-80 104 % of control | dose: 400.0 mg/kg/injection, schedule: Q04DX002 (ip), vehicle: saline with Tween-80 95 % of control

N=C(N)c1ncn(C2CCCC2)c1N
inactive: [23] 106 % of control | dose: 150.0 mg/kg/injection, schedule: Q01DX001 (ip), vehicle: saline 105 % of control

CCCCCCCCCCCCCCCCCCNc1ccc(C(=O)OCC)cc1
inactive: dose: 37.5 mg/kg/injection, schedule: Q01DX009 (ip), vehicle: saline 94 % of control | [23] 86 % of control | [24] 95 % of control | dose: 75.0 mg/kg/injection, schedule: Q04DX003 (ip), vehicle: saline 87 % of control | [25] 96 % of control | dose: 150.0 mg/kg/injection, schedule: Q04DX003 (ip), vehicle: saline 87 % of control | dose: 300.0 mg/kg/injection, schedule: Q01DX001 (ip), vehicle: saline 88 % of control | dose: 300.0 mg/kg/injection, schedule: Q04DX003 (ip), vehicle: saline 92 % of control

CCCCCC(C)NC(=O)NCCCl (stereo unspecified)
inactive: [5] 89 % of control | [6] 92 % of control | [7] 87 % of control

C=CCN(CC=C)P(N(CC=C)CC=C)N(CC=C)CC=C
inactive: [24] 98 % of control | [25] 96 % of control

[Cl][Pt][Cl].[NH-]CCN1CC1
inactive: dose: 5.0 mg/kg/injection, schedule: Q01DX009 (ip), vehicle: Klucel (hydroxypropylcellulose) (HPC) 114 % of control | dose: 10.0 mg/kg/injection, schedule: Q01DX009 (ip), vehicle: Klucel (hydroxypropylcellulose) (HPC) 110 % of control | dose: 20.0 mg/kg/injection, schedule: Q01DX009 (ip), vehicle: Klucel (hydroxypropylcellulose) (HPC) 98 % of control
